Measured values as given in US9486506B2 (Novo Nordisk A/S, priority 2011, dated 2016).
pEC50: −log10 of the molar value. Numbered stars: 1 amine (or outer) side, 2 acyl side, 3 side chain; on linkers, the order of the positions; unused ones are H or OH. Side chains are listed from the residue outwards. Peptide text beside a SMILES is read from it. * marks the point of attachment. C20 diacid = O=C(O)CCCCCCCCCCCCCCCCCCC(=O)*; C18 diacid = O=C(O)CCCCCCCCCCCCCCCCC(=O)*; C16 diacid = O=C(O)CCCCCCCCCCCCCCC(=O)*; γGlu = O=C(O)[C@H](CCC(=O)[*:2])N[*:1]; AEEA = NCCOCCOCC(=O)O

The compounds below were run against T1, glucagon receptor (Homo sapiens, UniProt P47871) (assay: Assay (I) Glucagon activity (cAMP biosensor, FLIPR)).
T1 construct: expressed in transfected cells
Type: cell-based

T1 sequence (P47871 26-477): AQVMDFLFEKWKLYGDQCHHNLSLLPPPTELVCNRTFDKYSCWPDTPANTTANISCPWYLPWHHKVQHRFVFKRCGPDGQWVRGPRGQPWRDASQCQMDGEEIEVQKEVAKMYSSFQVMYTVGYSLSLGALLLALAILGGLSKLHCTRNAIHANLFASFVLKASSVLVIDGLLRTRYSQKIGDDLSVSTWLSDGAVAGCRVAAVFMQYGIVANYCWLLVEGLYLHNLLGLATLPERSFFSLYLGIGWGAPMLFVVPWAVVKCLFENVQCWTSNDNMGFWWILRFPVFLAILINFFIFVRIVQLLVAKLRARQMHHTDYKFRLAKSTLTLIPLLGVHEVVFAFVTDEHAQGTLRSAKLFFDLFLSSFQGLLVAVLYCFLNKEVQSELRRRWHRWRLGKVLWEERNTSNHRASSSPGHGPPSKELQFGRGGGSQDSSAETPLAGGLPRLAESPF

| SMILES | pEC50 |
| --- | --- |
| CC(C)C[C@H](NC(=O)[C@H](Cc1ccc(O)cc1)NC(=O)[C@H](CCCCN)NC(=O)[C@H](CO)NC(=O)[C@H](Cc1ccc(O)cc1)NC(=O)[C@H](CC(=O)O)NC(=O)[C@H](CO)NC(=O)[C@@H](NC(=O)[C@H](Cc1ccccc1)NC(=O)[C@@H](NC(=O)CNC(=O)[C@H](CCC(N)=O)NC(=O)[C@H](CO)NC(=O)[C@@H](N)Cc1c[nH]cn1)[C@@H](C)O)[C@@H](C)O)C(=O)N[C@@H](CCC(=O)O)C(=O)N[C@@H](CO)C(=O)N[C@@H](CCCNC(=N)N)C(=O)N[C@@H](CCCNC(=N)N)C(=O)N[C@@H](C)C(=O)N[C@@H](CCC(N)=O)C(=O)N[C@@H](CC(=O)O)C(=O)N[C@@H](Cc1ccccc1)C(=O)N[C@H](C(=O)N[C@@H](CCCCNC(=O)CC[C@H](NC(=O)CC[C@H](NC(=O)COCCOCCNC(=O)COCCOCCNC(=O)CC[C@H](NC(=O)CCCCCCCCCCCCCCCCC(=O)O)C(=O)O)C(=O)O)C(=O)O)C(=O)N[C@@H](Cc1c[nH]c2ccccc12)C(=O)N[C@@H](CC(C)C)C(=O)N[C@@H](CCC(=O)O)C(=O)N[C@@H](CO)C(=O)N[C@H](C(=O)O)[C@@H](C)O)C(C)C [Example 59, N^ε24-[(4S)-4-carboxy-4-[[(4S)-4-carboxy-4-[[2-[2-[2-[[2-[2-[2-[[(4S)-4-carboxy-4-(17-carboxyheptadecanoylamino)butanoyl]amino]ethoxy]ethoxy]acetyl]amino]ethoxy]ethoxy]acetyl]amino]butanoyl]amino]butanoyl]-[Glu15,Lys24,Glu27,Ser28]-Glucagon] | 9.17 |
| CC(C)C[C@H](NC(=O)[C@H](Cc1ccc(O)cc1)NC(=O)[C@H](CCCCN)NC(=O)[C@H](CO)NC(=O)[C@H](Cc1ccc(O)cc1)NC(=O)[C@H](CC(=O)O)NC(=O)[C@H](CO)NC(=O)[C@@H](NC(=O)[C@H](Cc1ccccc1)NC(=O)[C@@H](NC(=O)CNC(=O)[C@H](Cc1c[nH]cn1)NC(=O)[C@H](CO)NC(=O)[C@@H](N)Cc1c[nH]cn1)[C@@H](C)O)[C@@H](C)O)C(=O)N[C@@H](CC(=O)O)C(=O)N[C@@H](CO)C(=O)N[C@@H](CCCNC(=N)N)C(=O)N[C@@H](CCCNC(=N)N)C(=O)N[C@@H](C)C(=O)N[C@@H](CCC(N)=O)C(=O)N[C@@H](CC(=O)O)C(=O)N[C@@H](Cc1ccccc1)C(=O)N[C@H](C(=O)N[C@@H](CCCCNC(=O)CC[C@H](NC(=O)CC[C@H](NC(=O)COCCOCCNC(=O)COCCOCCNC(=O)CC[C@H](NC(=O)CCCCCCCCCCCCCCCCC(=O)O)C(=O)O)C(=O)O)C(=O)O)C(=O)N[C@@H](Cc1c[nH]c2ccccc12)C(=O)N[C@@H](CC(C)C)C(=O)N[C@@H](CC(C)C)C(=O)N[C@@H](CC(N)=O)C(=O)N[C@H](C(=O)O)[C@@H](C)O)C(C)C [Example 5, N^ε24-[(4S)-4-carboxy-4-[[(4S)-4-carboxy-4-[[2-[2-[2-[[2-[2-[2-[[(4S)-4-carboxy-4-(17-carboxyheptadecanoylamino)butanoyl]amino]ethoxy]ethoxy]acetyl]amino]ethoxy]ethoxy]acetyl]amino]butanoyl]amino]butanoyl]-[His^3,Lys^24,Leu^27]-Glucagon] | 9.98 |
| CC(C)C[C@H](NC(=O)[C@H](CC(=O)O)NC(=O)[C@H](CC(C)C)NC(=O)[C@H](Cc1ccc(O)cc1)NC(=O)[C@H](CCCNC(=N)N)NC(=O)[C@H](CO)NC(=O)[C@H](Cc1ccc(O)cc1)NC(=O)[C@H](CC(=O)O)NC(=O)[C@H](CO)NC(=O)[C@@H](NC(=O)[C@H](Cc1ccccc1)NC(=O)[C@@H](NC(=O)CNC(=O)[C@H](CCC(N)=O)NC(=O)[C@H](CO)NC(=O)[C@@H](N)Cc1c[nH]cn1)[C@@H](C)O)[C@@H](C)O)C(=O)N[C@@H](CCCNC(=N)N)C(=O)N[C@@H](CCCNC(=N)N)C(=O)N[C@@H](C)C(=O)N[C@@H](CCC(N)=O)C(=O)N[C@@H](CC(=O)O)C(=O)N[C@@H](Cc1ccccc1)C(=O)N[C@H](C(=O)N[C@@H](CCCCNC(=O)CC[C@H](NC(=O)CC[C@H](NC(=O)COCCOCCNC(=O)COCCOCCNC(=O)CC[C@H](NC(=O)CCCCCCCCCCCCCCCCC(=O)O)C(=O)O)C(=O)O)C(=O)O)C(=O)N[C@@H](Cc1c[nH]c2ccccc12)C(=O)N[C@@H](CC(C)C)C(=O)N[C@@H](CC(C)C)C(=O)N[C@@H](CCC(N)=O)C(=O)N[C@H](C(=O)O)[C@@H](C)O)C(C)C [Example 48, N^ε24-[(4S)-4-carboxy-4-[[(4S)-4-carboxy-4-[[2-[2-[2-[[2-[2-[2-[[(4S)-4-carboxy-4-(17-carboxyheptadecanoylamino)butanoyl]amino]ethoxy]ethoxy]acetyl]amino]ethoxy]ethoxy]acetyl]amino]butanoyl]amino]butanoyl]-[Arg12,Leu16,Lys24,Leu27,Gln28]-Glucagon] (H-HSQGTFTSDYSRYLDLRRAQDFVK([γGlu-γGlu-AEEA-AEEA-γGlu-C18 diacid])WLLQT-OH) | 9.69 |
| CC(C)C[C@H](NC(=O)[C@H](Cc1c[nH]c2ccccc12)NC(=O)[C@H](CCCCNC(=O)CC[C@H](NC(=O)COCCOCCNC(=O)COCCOCCNC(=O)CC[C@H](NC(=O)CCCCCCCCCCCCCCCCC(=O)O)C(=O)O)C(=O)O)NC(=O)[C@@H](NC(=O)[C@H](Cc1ccccc1)NC(=O)[C@H](CCC(=O)O)NC(=O)[C@H](CCC(N)=O)NC(=O)[C@H](C)NC(=O)[C@H](CCCNC(=N)N)NC(=O)[C@H](CCCNC(=N)N)NC(=O)[C@@H](NC(=O)[C@H](CC(=O)O)NC(=O)[C@H](CC(C)C)NC(=O)[C@H](Cc1ccc(O)cc1)NC(=O)[C@H](CCCCN)NC(=O)[C@H](CO)NC(=O)[C@H](Cc1ccc(O)cc1)NC(=O)[C@H](CC(=O)O)NC(=O)[C@H](CO)NC(=O)[C@@H](NC(=O)[C@H](Cc1ccccc1)NC(=O)[C@@H](NC(=O)CNC(=O)[C@H](CCC(N)=O)NC(=O)[C@H](CO)NC(=O)[C@@H](N)Cc1c[nH]cn1)[C@@H](C)O)[C@@H](C)O)[C@@H](C)O)C(C)C)C(=O)N[C@@H](CC(C)C)C(=O)N[C@@H](CC(N)=O)C(=O)N[C@H](C(=O)O)C(C)C [Example 36, N^ε24-[(4S)-4-carboxy-4-[[2-[2-[2-[[2-[2-[2-[[(4S)-4-carboxy-4-(17-carboxyheptadecanoylamino)butanoyl]amino]ethoxy]ethoxy]acetyl]amino]ethoxy]ethoxy]acetyl]amino]butanoyl]-[Thr16,Glu21,Lys24,Leu27,Val29]-Glucagon] (H-HSQGTFTSDYSKYLDTRRAQEFVK([γGlu-AEEA-AEEA-γGlu-C18 diacid])WLLNV-OH) | 9.92 |
| CC(C)C[C@H](NC(=O)[C@H](CC(=O)O)NC(=O)[C@H](CC(C)C)NC(=O)[C@H](Cc1ccc(O)cc1)NC(=O)[C@H](CCCNC(=N)N)NC(=O)[C@H](CO)NC(=O)[C@H](Cc1ccc(O)cc1)NC(=O)[C@H](CC(=O)O)NC(=O)[C@H](CO)NC(=O)[C@@H](NC(=O)[C@H](Cc1ccccc1)NC(=O)[C@@H](NC(=O)CNC(=O)[C@H](CCC(N)=O)NC(=O)[C@H](CO)NC(=O)[C@@H](N)Cc1c[nH]cn1)[C@@H](C)O)[C@@H](C)O)C(=O)N[C@@H](CCCNC(=N)N)C(=O)N[C@@H](CCCNC(=N)N)C(=O)N[C@@H](C)C(=O)N[C@@H](CCC(N)=O)C(=O)N[C@@H](CC(=O)O)C(=O)N[C@@H](Cc1ccccc1)C(=O)N[C@H](C(=O)N[C@@H](CCCCNC(=O)CC[C@H](NC(=O)CC[C@H](NC(=O)COCCOCCNC(=O)COCCOCCNC(=O)CC[C@H](NC(=O)CCCCCCCCCCCCCCCCCCC(=O)O)C(=O)O)C(=O)O)C(=O)O)C(=O)N[C@@H](Cc1c[nH]c2ccccc12)C(=O)N[C@@H](CC(C)C)C(=O)N[C@@H](CC(C)C)C(=O)N[C@@H](CO)C(=O)N[C@H](C(=O)O)[C@@H](C)O)C(C)C [Example 26, N^ε24-[(4S)-4-carboxy-4-[[(4S)-4-carboxy-4-[[2-[2-[2-[[2-[2-[2-[[(4S)-4-carboxy-4-(19-carboxynonadecanoylamino)butanoyl]amino]ethoxy]ethoxy]acetyl]amino]ethoxy]ethoxy]acetyl]amino]butanoyl]amino]butanoyl]-[Arg^12,Leu^16,Lys^24,Leu^27,Ser^28]-Glucagon] (H-HSQGTFTSDYSRYLDLRRAQDFVK([γGlu-γGlu-AEEA-AEEA-γGlu-C20 diacid])WLLST-OH) | 8.97 |
| CC(C)C[C@H](NC(=O)[C@H](Cc1ccc(O)cc1)NC(=O)[C@H](CCCNC(=N)N)NC(=O)[C@H](CO)NC(=O)[C@H](Cc1ccc(O)cc1)NC(=O)[C@H](CC(=O)O)NC(=O)[C@H](CO)NC(=O)[C@@H](NC(=O)[C@H](Cc1ccccc1)NC(=O)[C@@H](NC(=O)CNC(=O)[C@H](CCC(N)=O)NC(=O)[C@H](CO)NC(=O)[C@@H](N)Cc1c[nH]cn1)[C@@H](C)O)[C@@H](C)O)C(=O)N[C@@H](CC(=O)O)C(=O)N[C@@H](C)C(=O)N[C@@H](CCCNC(=N)N)C(=O)N[C@@H](CCCNC(=N)N)C(=O)N[C@@H](C)C(=O)N[C@@H](CCC(N)=O)C(=O)N[C@@H](CC(=O)O)C(=O)N[C@@H](Cc1ccccc1)C(=O)N[C@H](C(=O)N[C@@H](CCCCNC(=O)CC[C@H](NC(=O)CC[C@H](NC(=O)CC[C@H](NC(=O)CC[C@H](NC(=O)CCCCCCCCCCCCCCC(=O)O)C(=O)O)C(=O)O)C(=O)O)C(=O)O)C(=O)N[C@@H](Cc1c[nH]c2ccccc12)C(=O)N[C@@H](CC(C)C)C(=O)N[C@@H](CC(C)C)C(=O)N[C@@H](CO)C(=O)N[C@H](C(=O)O)[C@@H](C)O)C(C)C [Example 73, N^ε24-[(4S)-4-carboxy-4-[[(4S)-4-carboxy-4-[[(4S)-4-carboxy-4-[[(4S)-4-carboxy-4-(15-carboxypentadecanoylamino)butanoyl]amino]butanoyl]amino]butanoyl]amino]butanoyl]-[Arg12,Ala16,Lys24,Leu27,Ser28]-Glucagon] (H-HSQGTFTSDYSRYLDARRAQDFVK([γGlu-γGlu-γGlu-γGlu-C16 diacid])WLLST-OH) | 9.97 |
